The target in the test is T1, hGIP-R (Homo sapiens, UniProt P48546).
T1 construct: expressed in transfected cells; host or cells: HEK-293 clonal cell lines
T1 sequence (P48546 22-466): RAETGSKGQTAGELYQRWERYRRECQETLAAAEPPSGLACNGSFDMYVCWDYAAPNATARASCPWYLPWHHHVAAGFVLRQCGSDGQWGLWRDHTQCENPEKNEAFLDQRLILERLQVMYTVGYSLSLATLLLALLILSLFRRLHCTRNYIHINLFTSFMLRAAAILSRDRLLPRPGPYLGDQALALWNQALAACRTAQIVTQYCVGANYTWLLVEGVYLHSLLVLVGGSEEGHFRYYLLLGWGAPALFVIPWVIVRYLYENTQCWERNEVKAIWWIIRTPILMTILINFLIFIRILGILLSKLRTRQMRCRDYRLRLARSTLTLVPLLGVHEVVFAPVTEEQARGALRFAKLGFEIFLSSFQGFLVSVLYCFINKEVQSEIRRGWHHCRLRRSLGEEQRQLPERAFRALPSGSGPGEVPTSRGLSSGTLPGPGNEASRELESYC
Briefly: Functional hGIP-R Assay (cAMP formation, HTRF). The class given is cell-based. The settings on record: for Emax: cAMP efficacy, percent of maximal response to GIP(1-42)OH, 37° C., 0.1% bovine casein, arithmetic mean ± SEM; for EC50: cAMP potency, HEK-293 cells expressing hGIP-R, incubated at 37° C. in the presence of 0.1% bovine casein, geometric mean, read-out: Human GIP-R EC50, nM (SEM, n). As for the experimental part:
Functional activity was determined using CAMP formation in HEK-293 clonal cell lines expressing hGIP-R. hGIP-R receptor expressing cells were treated with compound (20 point concentration-response curve in DMSO, 2-fold Labcyte Echo direct dilution, 384 well plate Corning Cat #3570) in DMEM (Gibco Cat #31053) supplemented with 1× GlutaMAX™ (Gibco Cat #35050), 0.1% bovine casein (Sigma C4765-10ML), 250 μM IBMX (3-Isobutyl-1-methylxanthine, Acros Cat #228420010) and 20 mM HEPES (Gibco Cat #15630) in a 20 μL assay volume (final DMSO concentration was 1%). After a 30 min incubation at 37° C., the resulting increase in intracellular cAMP was quantitatively determined using the Revvity CAMP Dynamic 2 HTRF Assay Kit (62AM4PEJ). Briefly, cAMP levels within the cell were detected by adding the cAMP-d2 conjugate in cell lysis buffer (10 μL) followed by the antibody anti-cAMP-Eu^3+-Cryptate, also in cell lysis buffer (10 μL). The resulting competitive assay was incubated for at least 60 min at RT, then detected using a BMG Labtech PHERAstar FSX instrument with excitation at 320 nm and emission at 665 nm and 620 nm. PHERAstar units (emission at 665 nm/620 nm*10,000) are inversely proportional to the amount of cAMP present and were converted to nM cAMP per well using a CAMP standard curve. The amount of cAMP generated (nM) in each well was converted to a percent of the maximal response observed with human GIP (1-42) OH. A relative EC50 value and percent top (Emax) were derived by non-linear regression analysis using the percent maximal response vs. the concentration of compound added, fitted to a four-parameter logistic equation.
In general terms: Cyclic AMP is a second messenger, typically raised through Gs and lowered through Gi signalling.

This is an account of results in patent publication US20260108546A1 (ELI LILLY AND COMPANY, priority 2024, published 2026).

A word on the Emax: it is the greatest response seen or fitted, relative to the assay's reference. What is called EC50 is the midpoint of the concentration-response curve.

Regarding `Cn1cc2cc(-c3ccc([C@H]4C[C@@]45CCN([C@H](Cc4cnn(C(F)F)c4)C(=O)NC4(Cn6nc(C(F)(F)F)cc6-c6cc(F)c(=O)n(C)c6)CC4)C5=O)c(F)c3)cnc2n1` (single isomer, unassigned; isomer 1) [Example 119], the Emax is 79.5 ± 5.3% and the EC50 was determined as 144 nM.
Taken in the same sequence, the figures for `[2H]C([2H])([2H])N(C(=O)C1CC1(C)c1ccc(-c2cnc3nn(C)cc3c2)cc1F)[C@H](Cc1cnn(C(F)F)c1)C(=O)NC(C)(C)Cn1nc(C(F)(F)F)cc1-c1cc(F)c(=O)n(C)c1` (single isomer, unassigned; isomer 1) [Example 140] were 84.8 ± 5.99% and 51.7 nM.
Taken in the same sequence, the figures for `Cc1cn2cc(-c3ccc(C4CC45CCN([C@H](Cc4cnn(C(F)F)c4)C(=O)NC(C)(C)Cn4nc(C(F)(F)F)cc4-c4ccc(=O)n(C)c4)C5=O)c(C(F)(F)F)c3)cnc2n1` (single isomer, unassigned; isomer 1) [Example 153] were 77 ± 2.05% and 0.478 nM.
Take `Cc1cn2cc(-c3ccc([C@H]4C[C@@]45CCN([C@H](Cc4cnn(C(F)F)c4)C(=O)NC(C)(C)Cc4nc(C(F)(F)F)cn4C4CCN(C)C4=O)C5=O)c(Cl)c3)cnc2n1` (single isomer, unassigned; isomer 1) [Example 177]: the Emax was found to be 115 ± 1.59% and the EC50 was 0.845 nM.
Turning to `Cn1cc(C[C@@H](NC(=O)C2CC2c2ccc(-c3cnc4nn(C)cc4c3)s2)C(=O)NC(C)(C)Cn2nc(C(F)(F)F)cc2Br)cn1` (single isomer, unassigned; isomer 2) [Example 7], the Emax came to 99.7 ± 0.756% and the EC50 was 246 nM.
Taken in the same sequence, the figures for `Cn1cc(C[C@@H](NC(=O)C2CC2c2ccc(-c3cnc4nccn4c3)cc2C(F)(F)F)C(=O)NC(C)(C)Cc2ccc(F)cc2)cn1` (single isomer, unassigned; isomer 2) [Example 29] were 99.4% and 79.8 nM.
Taken in the same sequence, the figures for `Cc1cc(C2CC2C(=O)N[C@H](Cc2cnn(C)c2)C(=O)NC(C)(C)Cc2ccc(F)cc2)ccc1NC(=O)Nc1ccc(F)cc1` (single isomer, unassigned; isomer 2) [Example 50] were 85.5 ± 2.37% and 82.3 nM.
Taken in the same sequence, the figures for `Cn1cc(C[C@@H](NC(=O)C2CC2c2ccc(-c3cnc4nn(C)cc4c3)s2)C(=O)NC(C)(C)Cn2nc(C(F)(F)F)cc2-c2ccc(=O)n(C)c2)cn1` (single isomer, unassigned; isomer 2) [Example 60] were 89.8 ± 3.63% and 189 nM.
Take `Cn1cc2cc(-c3ccc(C4CC4C(=O)N[C@H](Cc4cnc5ncccn45)C(=O)NC(C)(C)Cn4cc(C(F)(F)F)cn4)c(F)c3)cnc2n1` (single isomer, unassigned; isomer 2) [Example 71]: the Emax was determined as 88.4 ± 10.3% and the EC50 is 74.8 nM.
Taken in the same sequence, the figures for `CC(C)(Cn1cc(C(F)(F)F)cn1)NC(=O)[C@@H](Cc1cnc2ncccn12)NC(=O)C1CC1c1ccc(-c2cnc3nn(C(F)F)cc3c2)cn1` (single isomer, unassigned; isomer 2) [Example 72] were 102 ± 4.83% and 300 nM.
For `Cn1cc2cc(-c3ccc(C4CC45CCN([C@H](Cc4cnn(C(F)F)c4)C(=O)NC(C)(C)Cn4nc(C(F)(F)F)cc4-c4cc(F)c(=O)n(C)c4)C5=O)c(C(F)F)c3)cnc2n1` (single isomer, unassigned; isomer 2) [Example 109], the Emax turned out to be 73.3 ± 2.59% and the EC50 worked out at 0.701 nM.
Taken in the same sequence, the figures for `Cn1cc(C[C@@H](NC(=O)C2CC2(C)c2ccc(-c3cnc4nn(C)cc4c3)cc2)C(=O)NC(C)(C)Cn2cc(C(F)(F)F)cn2)cn1` (single isomer, unassigned; isomer 4) [Example 11] were 117 ± 5.22% and 55.2 nM.
Taken in the same sequence, the figures for `Cn1cc2cc(-c3ccc([C@H]4C[C@@H]4C(=O)N[C@H](Cc4cnn(C(F)F)c4)C(=O)NC(C)(C)Cn4nc(C(F)(F)F)cc4Br)cc3)cnc2n1` [Example 12, (1S,2S)-N-((R)-1-((1-(5-bromo-3-(trifluoromethyl)-1H-pyrazol-1-yl)-2-methylpropan-2-yl)amino)-3-(1-(difluoromethyl)-1H-pyrazol-4-yl)-1-oxopropan-2-yl)-2-(4-(2-methyl-2H-pyrazolo[3,4-b]pyridin-5-yl)phenyl) cyclopropane-1-carboxamide] were 106 ± 5.38% and 104 nM.
Taken in the same sequence, the figures for `Cn1cc(C[C@@H](NC(=O)[C@H]2C[C@@H]2c2ccc(-c3cnc4nn(C)cc4c3)cc2)C(=O)NC(C)(C)Cn2nc(C(F)(F)F)cc2-c2n[nH]cc2F)cn1` [Example 14, (1S,2S)-N-((R)-1-((1-(4-Fluoro-5′-(trifluoromethyl)-1H,2′H-[3,3′-bipyrazol]-2′-yl)-2-methylpropan-2-yl)amino)-3-(1-methyl-1H-pyrazol-4-yl)-1-oxopropan-2-yl)-2-(4-(2-methyl-2H-pyrazolo[3,4-b]pyridin-5-yl)phenyl) cyclopropane-1-carboxamide] were 103 ± 10.2% and 87.7 nM.
For `Cc1ncc(-c2cc(C(F)(F)F)nn2CC(C)(C)NC(=O)[C@@H](Cc2cnn(C)c2)NC(=O)[C@H]2C[C@@H]2c2ccc(-c3cnc4nn(C)cc4c3)cc2)[nH]1` [Example 15, (1S,2S)-N-((R)-1-((2-Methyl-1-(5-(2-methyl-1H-imidazol-5-yl)-3-(trifluoromethyl)-1H-pyrazol-1-yl)propan-2-yl)amino)-3-(1-methyl-1H-pyrazol-4-yl)-1-oxopropan-2-yl)-2-(4-(2-methyl-2H-pyrazolo[3,4-b]pyridin-5-yl)phenyl) cyclopropane-1-carboxamide], the Emax turned out to be 117 ± 6.6% and the EC50 was found to be 24.6 nM.
Taken in the same sequence, the figures for `Cn1cc(C[C@@H](NC(=O)[C@H]2C[C@@H]2c2ccc(-c3cnc4nn(C)cc4c3)cc2)C(=O)NC(C)(C)Cn2nc(C(F)(F)F)cc2-c2n[nH]c(=O)s2)cn1` [Example 16, (1S,2S)-N-((R)-1-((2-Methyl-1-(5-(5-oxo-4,5-dihydro-1,3,4-thiadiazol-2-yl)-3-(trifluoromethyl)-1H-pyrazol-1-yl)propan-2-yl)amino)-3-(1-methyl-1H-pyrazol-4-yl)-1-oxopropan-2-yl)-2-(4-(2-methyl-2H-pyrazolo[3,4-b]pyridin-5-yl)phenyl) cyclopropane-1-carboxamide] were 104 ± 4.17% and 36 nM.
On to `Cn1cc(C[C@@H](NC(=O)[C@H]2C[C@@H]2c2ccc(-c3cnc4nn(C)cc4c3)cc2)C(=O)NC(C)(C)Cn2nc(C(F)(F)F)cc2-c2ncsn2)cn1` [Example 17, (1S,2S)-N-((R)-1-((1-(5-(1,2,4-Thiadiazol-3-yl)-3-(trifluoromethyl)-1H-pyrazol-1-yl)-2-methylpropan-2-yl)amino)-3-(1-methyl-1H-pyrazol-4-yl)-1-oxopropan-2-yl)-2-(4-(2-methyl-2H-pyrazolo [3,4-b]pyridin-5-yl)phenyl) cyclopropane-1-carboxamide], for which the Emax was 129 ± 11.4% and the EC50 turned out to be 83.5 nM.
